Here are results for 37 compounds from patent publication US20150315211A1, “SMALL MOLECULES FOR THE MODULATION OF MCL-1 AND METHODS OF MODULATING CELL DEATH, CELL DIVISION, CELL DIFFERENTIATION AND METHODS OF TREATING DISORDERS” (priority 2010, published 2015).

The test system of assay [1] is MCL-1ΔNΔC. In words: High-throughput competitive FP binding screen, FITC-MCL-1 SAHB/MCL-1ΔNΔC interaction. Conditions: selectivity for MCL-1ΔNΔC over BCL-XLΔC targeting (BCL-XL % Bound minus MCL-1 % Bound).
Assay [2] has as its target BCL-XLΔC (Homo sapiens, UniProt Q07817). Nature of the assay: High-throughput competitive FP binding screen, FITC-BAD BH3/BCL-XLΔC interaction. Conditions: FITC-BAD BH3/BCL-XLΔC interaction pair, competitive FP screen.
Assay [3] deals with MCL-1ΔNΔC (Homo sapiens, UniProt Q07820). In words: High-throughput competitive FP binding screen, FITC-MCL-1 SAHB/MCL-1ΔNΔC interaction. Details: the C-terminal alpha-helix was deleted from each of these constructs; GST (N, cleaved yes); made in house. To be noted: FITC-MCL-1 SAHB/MCL-1ΔNΔC interaction pair, competitive FP screen.
Chain of MCL-1ΔNΔC (Homo sapiens, UniProt Q07820) (Q07820 172-320 limits assumed, stated change not applied): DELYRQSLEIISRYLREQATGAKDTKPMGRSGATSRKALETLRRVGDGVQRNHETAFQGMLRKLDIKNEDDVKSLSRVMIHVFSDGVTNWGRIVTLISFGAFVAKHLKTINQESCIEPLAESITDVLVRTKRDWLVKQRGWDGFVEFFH

Chain of BCL-XLΔC (Q07817 1-212 limits assumed, stated change not applied): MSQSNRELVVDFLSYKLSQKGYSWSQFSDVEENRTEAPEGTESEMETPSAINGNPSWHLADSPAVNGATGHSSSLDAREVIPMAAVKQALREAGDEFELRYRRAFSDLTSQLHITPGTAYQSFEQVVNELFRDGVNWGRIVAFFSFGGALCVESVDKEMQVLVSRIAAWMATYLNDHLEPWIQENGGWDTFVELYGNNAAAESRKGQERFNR

As for `O=C(/C=C/c1ccc(Br)o1)OCC(=O)c1c[nH]c2ccccc12`, in assay [1], the “Spec Values” is on record as 52.14. Besides, the “BCL-XL % Bound” value in assay [2] was 105.6%. Also, in assay [3], the “MCL-1% Bound” value amounted to 53.49%.
The corresponding values for `CCC(c1nnc(SCC(=O)NCCc2ccc(Cl)cc2Cl)o1)N(C)C` (stereo not drawn) are 52.14, 101.6% and 49.44%.
The like results for `CCN1C(=O)C2Cc3cc(OC)c(OC)cc3CN2C1=S` (stereo not drawn) were, in that order, 51.9, 91.73% and 39.84%.
The corresponding values for `CCn1c(-c2ccccc2)cnc1S` are 51.73, 105.8% and 54.03%.
In the case of `C=C/C(=C\C)N(CC)S(=O)(=O)c1ccc(Oc2ccc(-n3ccnc3)cc2)nc1`, the “Spec Values” in assay [1] is recorded as 51.73. Further, in assay [2], the “BCL-XL % Bound” value was found to be 102.9%. The “MCL-1% Bound” value in assay [3] was 51.21%.
Turning to `Cc1ccc(NCc2n[nH]c(=S)n2-c2ccccc2)cc1`, the “Spec Values” in assay [1] was 51.62. Besides, in assay [2], the “BCL-XL % Bound” value amounted to 94.84%. For the same compound, in assay [3], the “MCL-1% Bound” value amounted to 43.22%.
As for `COc1ccc(-n2nc3cc(C)c(N)c(Br)c3n2)cc1`, the “Spec Values” in assay [1] turned out to be 51.41. In addition, the “BCL-XL % Bound” value in assay [2] amounted to 83.97%. The “MCL-1% Bound” value in assay [3] was determined as 32.56%.
The like results for `Cc1nn(-c2ccccc2)c2nc3ccccc3c(N3CCOCC3)c12` were, in that order, 50.97, 98.28% and 47.31%.
Regarding `COc1cccc(OCc2nnc(SCc3ccccc3)n2C)c1`, the “Spec Values” in assay [1] turned out to be 50.95. In addition, the “BCL-XL % Bound” value in assay [2] amounted to 97.51%. Further, the “MCL-1% Bound” value in assay [3] was found to be 46.56%.
The corresponding values for `CCOC(=O)c1c(C)oc2c1c1c(c3ccccc32)OCN(C2CC(C)(C)NC(C)(C)C2)C1` are 50.9, 85% and 34.11%.
The like results for `CC1CCC(C(C)C)C(OC(=O)COC(=O)c2ccc(O)cc2)C1` (stereo not drawn) were, in that order, 50.73, 106.5% and 55.74%.
The corresponding values for `Cc1cccc(CSc2ccc(-c3ccco3)nn2)c1` are 50.6, 95.36% and 44.76%.
Regarding `CSc1sc(C(=O)/C=C/N(C)C)c(-c2cccs2)c1C#N`, the “Spec Values” in assay [1] was found to be 50.48. Moreover, in assay [2], the “BCL-XL % Bound” value is given as 30.42%. The “MCL-1% Bound” value in assay [3] is listed as −20.06%.
The corresponding values for `CCOc1cc(/C=C(/C#N)c2cccc(Br)c2)ccc1OCc1ccc(C(=O)O)o1` are 50.28, 85.88% and 35.61%.
The corresponding values for `Cc1nn(C)c2nc(NNC(=O)c3cccc(C(F)(F)F)c3)ccc12` are 50.23, 107.3% and 57.07%.
The corresponding values for `CCOC(=O)c1ccc2nc(NC(=O)CSc3nc(C)cc(=O)[nH]3)sc2c1` are 49.78, 106.3% and 56.55%.
On to `CC1=C(C)C/S(=N\S(=O)(=O)c2ccc(Cl)cc2)N(S(=O)(=O)c2ccc(Cl)cc2)C1` (stereo not drawn), for which the “Spec Values” in assay [1] stood at 49.76. In addition, the “BCL-XL % Bound” value in assay [2] amounted to 100.2%. Further, in assay [3], the “MCL-1% Bound” value was found to be 50.42%.
`O=c1ccc(-c2ccco2)nn1Cc1ccc(Cl)c(Cl)c1`: the “Spec Values” in assay [1] was 49.7. For the same compound, the “BCL-XL % Bound” value in assay [2] is reported as 96.49%. Besides, the “MCL-1% Bound” value in assay [3] is recorded as 46.79%.
The like results for `CN1CCN(C(c2ccccn2)c2c(-c3ccccc3)n(O)c3ccccc23)CC1` (stereo not drawn) were, in that order, 49.28, 99.83% and 50.55%.
The corresponding values for `Cc1c(Cl)cccc1N1C(=O)CC(N2CCCc3ccccc32)C1=O` (stereo not drawn) are 48.92, 84.74% and 35.82%.
As for `CC(C)(C)c1ccc(-c2nnc(S)[nH]2)cc1`, the “Spec Values” in assay [1] stood at 48.83. For the same compound, in assay [2], the “BCL-XL % Bound” value stood at 96.8%. Further, the “MCL-1% Bound” value in assay [3] was found to be 47.97%.
The corresponding values for `Cc1oc(-c2cccc(C(F)(F)F)c2)cc1C(=O)O` are 48.68, 81.9% and 33.22%.
The like results for `COc1cc(C(c2nnnn2C2CCCCC2)N2CCc3ccccc3C2)ccc1O` (stereo not drawn) were, in that order, 48.33, 105.8% and 57.44%.
The corresponding values for `CNc1sc(C(=O)c2cccs2)c(N)c1-c1nc2ccccc2s1` are 48.22, 92.47% and 44.25%.
Take `CCCCn1c2ccccc2c2nnc(S)nc21`: the “Spec Values” in assay [1] was found to be 48.16. The “BCL-XL % Bound” value in assay [2] was 92.39%. The “MCL-1% Bound” value in assay [3] came to 44.24%.
The like results for `CC1=CC(=O)C(CCCC2=CC(=O)C=CC2=O)=CC1=O` were, in that order, 48.07, 92.47% and 44.41%.
The like results for `c1ccc(-c2ccc3c(c2)c2c4n3CCN=C4CCC2)cc1` were, in that order, 47.9, 68.24% and 20.34%.
Turning to `O=C(NCc1ccco1)c1ccc(-c2cc3ccccc3oc2=O)cc1`, in assay [1], the “Spec Values” worked out at 47.79. For the same compound, the “BCL-XL % Bound” value in assay [2] amounted to 115.7%. The “MCL-1% Bound” value in assay [3] turned out to be 67.95%.
The corresponding values for `NNCc1c(Cl)cccc1Cl` are 47.77, 103.5% and 55.76%.
The corresponding values for `COC(=O)c1ccc(C(c2cc3c(cc2O)OCO3)N2CCN(c3ccccc3)CC2)cc1` (stereo not drawn) are 47.71, 96.46% and 48.75%.
Take `CCOC(=O)c1c(N2C(=O)C3C4C=CC(O4)C3C2=O)sc2c1CCCC2` (stereo not drawn): in assay [1], the “Spec Values” is 47.7. Further, the “BCL-XL % Bound” value in assay [2] amounted to 95.97%. Besides, in assay [3], the “MCL-1% Bound” value worked out at 48.27%.
Consider `CC1=NN(c2ccccc2)C(=O)/C1=C/c1ccc(OC(=O)c2ccco2)c(Cl)c1`, for which, in assay [1], the “Spec Values” stood at 47.67. In addition, in assay [2], the “BCL-XL % Bound” value is listed as 96.2%. Besides, in assay [3], the “MCL-1% Bound” value came to 48.53%.
Consider `CC1(C)CC(=O)C(=Cc2cn(-c3ccccc3)nc2-c2cccs2)C(=O)C1`, for which the “Spec Values” in assay [1] came to 47.55. Also, the “BCL-XL % Bound” value in assay [2] was 90.62%. Moreover, in assay [3], the “MCL-1% Bound” value was 43.07%.
The corresponding values for `CCOc1cccc(CNc2ccc(N3CCCC3)cc2)c1` are 47.31, 82.24% and 34.93%.
The like results for `COC(=O)c1c(NC(=O)C2CC2)sc(C)c1C` were, in that order, 47.29, 101% and 53.71%.
Take `Oc1ccc(/C=N/c2cccc(C(F)(F)F)c2)c(O)c1`: the “Spec Values” in assay [1] worked out at 47.26. In addition, in assay [2], the “BCL-XL % Bound” value is recorded as 75.68%. The “MCL-1% Bound” value in assay [3] turned out to be 28.42%.
Consider `COC(=O)C1C(=O)NC(S)=C(C#N)C1c1ccccc1Cl` (stereo not drawn), for which the “Spec Values” in assay [1] is on record as 47.12. Besides, the “BCL-XL % Bound” value in assay [2] is listed as 94.15%. Moreover, the “MCL-1% Bound” value in assay [3] worked out at 47.02%.
